Assay results as given in patent US11464763B2, “Parasiticidal compositions comprising an isoxazoline active agent, methods and uses thereof” (BOEHRINGER INGELHEIM ANIMAL HEALTH USA INC., priority 2011, dated 2022).
≈ marks a conversion by molar mass, not a printed value.

Key:
Haematobia irritans = assay: Pour-on efficacy against Haematobia irritans (horn fly) in cattle (Example 14); format: in vivo; conditions: Group 2: pour-on 10% in DES, 1 ml/10 kg
Ctenocephalides felis = assay: Long lasting spot-on efficacy against Ctenocephalides felis fleas in cats (Example 9); format: in vivo
Experimental: The efficacy of spot-on compositions comprising Cmpd. A in DMI at different doses against Ctenocephalides felis fleas in cats was studied. Four treatment groups were formed with five cats per treatment group: Group 1—untreated control; Group 2—Compound A at 5.0% (w/v) in DMI to deliver a dose of 5 mg/kg; Group 3—Compound A at a concentration of 10.0% (w/v) in DMI to deliver a dose of 10 mg/kg; and Group 4—Compound A at a concentration of 15.0% (w/v) in DMI to deliver a dose of 15 mg/kg. Treatment was administered once on Day 0. The cats were each infested with approximately 100 C. felis fleas at each time point evaluated.
Cats in all treatment groups were infested on Days −1, 0 (approx. 12 h following treatment), 7, 28, 49, 70, 91, 105, 119 and 133. Cats were also infested on Days 126 and 140 (Treatment Groups 1 and 2); Days 147, 154, 155, 161, 168 and 175 (Treatment Groups 1, 3 and 4); Days 182, 189 and 197 (Treatment Groups 1 and 4). After each infestation, fleas were removed and counted approximately 48 hours (±3 hours) for most time points.

Otodectes cynotis = assay: Spot-on efficacy against Otodectes cynotis (ear mites) in cats (Example 12); format: in vivo; conditions: live mite count Day 14
Experimental: The efficacy of two spot-on compositions comprising Compound A at doses of 5 mg/kg and 10 mg/kg against Otodectes cynotis in cats was evaluated compared to an untreated control. Eighteen healthy cats were grouped into three study groups consisting of six cats per group. Cats in the treatment groups were infested with Otodectes cynotis obtained from naturally infested donor cats prior to acclimation on Day −7. Group 1 was an untreated control group. Cats in Groups 2 and 3 were treated once on Day 0 with a spot-on composition comprising Compound A at two different concentrations and doses by application of the formulation directly on the skin in the midline of the neck between the base of the skull and the shoulder blades with a 1 mL disposable syringe. Cats in Group 2 were treated with a spot-on composition containing 5.0% (w/v) Compound A in a carrier containing 40% (v/v) diethyl sebacate (DES) in dimethylisosorbide (DMI) at a dose of 5 mg/kg body weight; and cats in Group 3 were treated with a spot-on composition containing 10.0% (w/v) Compound A in a carrier containing 40% (v/v) DES in DMI at a dose of 10 mg/kg body weight. […] Visible live ear mites (adult or immature) were counted and debris/cerumen level was estimated for both ear ducts. A quantitative assessment of ear mites by ear duct flushing, mite collection and live mite count was performed on Day 14. […]

A. americanum = assay: Efficacious plasma concentration (EC90) against A. americanum ticks in dogs (Example 13); format: in vivo, Amblyomma americanum; conditions: for EC90 (concentration required to achieve 90% efficacy): plasma concentration
Experimental: Blood samples were collected from all dogs on Days −5, 0 (at 4 h and 12 h), 1, 2, 9, 16, 23, 30, 37 and 44. Plasma samples were analyzed for the concentration of Compound A using a LC/MS/MS method that was GLP validated for the analysis of the compound.
Plasma concentrations of Compound A from dogs in the studies of Examples 1 and 4 were determined according to the description in Example 1, and the plasma concentration versus % efficacy against A. americanum and D. variabilis were fit to a Sigmoidal Emax model. […] Since Compound A is systemically active, the lower concentration of the compound in the plasma required to achieve 90% efficacy from the topical compositions of the invention is surprising and unexpected.

O=C(CNC(=O)c1ccc(C2=NOC(c3cc(Cl)cc(C(F)(F)F)c3)(C(F)(F)F)C2)c2ccccc12)NCC(F)(F)F (stereo not drawn) [Compound A, 4-[5-[3-chloro-5-(trifluoromethyl)phenyl]-4,5-dihydro-5-(trifluoromethyl)-3-isoxazolyl]-N-[2-oxo-2-[(2,2,2-trifluoroethyl)amino]ethyl]-1-naphthalanecarboxamide]
% Reduction (Haematobia irritans; Day 35 (5 h)): 42.6% | % Reduction (Haematobia irritans; Day 36 (24 h)): 90.4% | efficacy against fleas (Ctenocephalides felis; Group 2 (5 mg/kg), up to Day 121): 90% | % Reduction Fleas (Ctenocephalides felis; Group 2: 5.0% in DMI, 5 mg/kg, Day 0 (12 hr)): 61.1% | % Reduction Fleas (Ctenocephalides felis; Group 2: 5.0% in DMI, 5 mg/kg, Day 2): 100.0% | % Reduction Fleas (Ctenocephalides felis; Group 2: 5.0% in DMI, 5 mg/kg, Day 9): 100.0% | % Reduction Fleas (Ctenocephalides felis; Group 2: 5.0% in DMI, 5 mg/kg, Day 30): 100.0% | % Reduction Fleas (Ctenocephalides felis; Group 2: 5.0% in DMI, 5 mg/kg, Day 51): 100.0% | % Reduction Fleas (Ctenocephalides felis; Group 2: 5.0% in DMI, 5 mg/kg, Day 72): 100.0% | % Reduction Fleas (Ctenocephalides felis; Group 2: 5.0% in DMI, 5 mg/kg, Day 93): 100.0% | % Reduction Fleas (Ctenocephalides felis; Group 2: 5.0% in DMI, 5 mg/kg, Day 107): 100.0% | % Reduction Fleas (Ctenocephalides felis; Group 2: 5.0% in DMI, 5 mg/kg, Day 121): 92.3% | % Reduction Fleas (Ctenocephalides felis; Group 2: 5.0% in DMI, 5 mg/kg, Day 128): 89.1% | % Reduction Fleas (Ctenocephalides felis; Group 2: 5.0% in DMI, 5 mg/kg, Day 135): 88.3% | % Reduction Fleas (Ctenocephalides felis; Group 2: 5.0% in DMI, 5 mg/kg, Day 142): 80.0% | efficacy against fleas (Ctenocephalides felis; Group 3 (10 mg/kg), up to Day 163): 90% | % Reduction Fleas (Ctenocephalides felis; Group 3: 10.0% in DMI, 10 mg/kg, Day 0 (12 hr)): 95.4% | % Reduction Fleas (Ctenocephalides felis; Group 3: 10.0% in DMI, 10 mg/kg, Day 2): 100.0% | % Reduction Fleas (Ctenocephalides felis; Group 3: 10.0% in DMI, 10 mg/kg, Day 9): 100.0% | % Reduction Fleas (Ctenocephalides felis; Group 3: 10.0% in DMI, 10 mg/kg, Day 30): 100.0% | % Reduction Fleas (Ctenocephalides felis; Group 3: 10.0% in DMI, 10 mg/kg, Day 51): 100.0% | % Reduction Fleas (Ctenocephalides felis; Group 3: 10.0% in DMI, 10 mg/kg, Day 72): 100.0% | % Reduction Fleas (Ctenocephalides felis; Group 3: 10.0% in DMI, 10 mg/kg, Day 93): 100.0% | % Reduction Fleas (Ctenocephalides felis; Group 3: 10.0% in DMI, 10 mg/kg, Day 107): 100.0% | % Reduction Fleas (Ctenocephalides felis; Group 3: 10.0% in DMI, 10 mg/kg, Day 121): 100.0% | % Reduction Fleas (Ctenocephalides felis; Group 3: 10.0% in DMI, 10 mg/kg, Day 135): 99.8% | % Reduction Fleas (Ctenocephalides felis; Group 3: 10.0% in DMI, 10 mg/kg, Day 149): 99.5% | % Reduction Fleas (Ctenocephalides felis; Group 3: 10.0% in DMI, 10 mg/kg, Day 155): 50.0% | % Reduction Fleas (Ctenocephalides felis; Group 3: 10.0% in DMI, 10 mg/kg, Day 157): 98.1% | % Reduction Fleas (Ctenocephalides felis; Group 3: 10.0% in DMI, 10 mg/kg, Day 163): 94.5% | % Reduction Fleas (Ctenocephalides felis; Group 3: 10.0% in DMI, 10 mg/kg, Day 170): 87.8% | % Reduction Fleas (Ctenocephalides felis; Group 3: 10.0% in DMI, 10 mg/kg, Day 177): 70.8% | efficacy against fleas (Ctenocephalides felis; Group 4 (15 mg/kg), up to Day 191): 90% | % Reduction Fleas (Ctenocephalides felis; Group 4: 15.0% in DMI, 15 mg/kg, Day 0 (12 hr)): 85.3% | % Reduction Fleas (Ctenocephalides felis; Group 4: 15.0% in DMI, 15 mg/kg, Day 2): 100.0% | % Reduction Fleas (Ctenocephalides felis; Group 4: 15.0% in DMI, 15 mg/kg, Day 9): 100.0% | % Reduction Fleas (Ctenocephalides felis; Group 4: 15.0% in DMI, 15 mg/kg, Day 30): 100.0% | % Reduction Fleas (Ctenocephalides felis; Group 4: 15.0% in DMI, 15 mg/kg, Day 51): 100.0% | % Reduction Fleas (Ctenocephalides felis; Group 4: 15.0% in DMI, 15 mg/kg, Day 72): 100.0% | % Reduction Fleas (Ctenocephalides felis; Group 4: 15.0% in DMI, 15 mg/kg, Day 93): 100.0% | % Reduction Fleas (Ctenocephalides felis; Group 4: 15.0% in DMI, 15 mg/kg, Day 107): 100.0% | % Reduction Fleas (Ctenocephalides felis; Group 4: 15.0% in DMI, 15 mg/kg, Day 121): 100.0% | % Reduction Fleas (Ctenocephalides felis; Group 4: 15.0% in DMI, 15 mg/kg, Day 135): 100.0% | % Reduction Fleas (Ctenocephalides felis; Group 4: 15.0% in DMI, 15 mg/kg, Day 149): 100.0% | % Reduction Fleas (Ctenocephalides felis; Group 4: 15.0% in DMI, 15 mg/kg, Day 155): 78.0% | % Reduction Fleas (Ctenocephalides felis; Group 4: 15.0% in DMI, 15 mg/kg, Day 157): 100.0% | % Reduction Fleas (Ctenocephalides felis; Group 4: 15.0% in DMI, 15 mg/kg, Day 163): 100.0% | % Reduction Fleas (Ctenocephalides felis; Group 4: 15.0% in DMI, 15 mg/kg, Day 170): 96.2% | % Reduction Fleas (Ctenocephalides felis; Group 4: 15.0% in DMI, 15 mg/kg, Day 177): 94.8% | % Reduction Fleas (Ctenocephalides felis; Group 4: 15.0% in DMI, 15 mg/kg, Day 184): 95.7% | % Reduction Fleas (Ctenocephalides felis; Group 4: 15.0% in DMI, 15 mg/kg, Day 191): 90.6% | % Reduction Fleas (Ctenocephalides felis; Group 4: 15.0% in DMI, 15 mg/kg, Day 199): 79.2% | reduced the infestation of ear mites (Otodectes cynotis; Group 2: 5.0% in 40% DES in DMI, 5 mg/kg): 99.0% | reduced the infestation of ear mites (Otodectes cynotis; Group 3: 10.0% in 40% DES in DMI, 10 mg/kg): 100.0% | concentration required to achieve 90% efficacy, lower than the concentration required from oral administration (A. americanum; dogs, topical vs oral): about 42% | EC90 (concentration required to achieve 90% efficacy) (A. americanum; dogs, topical compositions, Sigmoidal Emax model): 0.092 µg/mL (≈ 0.147 µM) | EC90 (concentration required to achieve 90% efficacy) (A. americanum; oral dosage form): 0.158 µg/mL (≈ 0.252 µM)
